As usually defined, the boiling point is the temperature at which the vapour pressure of the liquid equals the pressure above it.

Like-named read-outs stand apart in the source and are kept apart here.

Data set [1] can be described thus: Dielectric constant and dissipation factor, Agilent 85070 Dielectric Probe, 20 GHz. It counts as physicochemical. The note with it: values 'about'; for Dielectric Constant (20 GHz): room temperature. On the procedure:
“Dielectric Constant” means the dielectric constant as measured in accordance with ASTM D150-11 at room temperature at 20 giga hertz (GHz).
(§1) The boiling point (“BP”) and dielectric constant (“Dk”) of HFO-1438ez(E) and HFO-1438ez(Z) were determined and the results are reported below in Table E1. Static dielectric constant for new molecules was calculated using Kirkwood theory as described in papers by Wang and Anderko [P. Wang and A. Anderko, Computation of dielectric constants of solvent mixtures and electrolyte solutions, Fluid Phase Equilibria 186 (2001) 103-122] and Harvey and Lemmon [A. H. Harvey and E. W. Lemmon, Method for estimating dielectric constant of natural gas mixtures, International Journal of Thermophysics 26 (2005) 31-46]. The dielectric property of each of HFO-1438ez(E) and HFO-1438ez(Z) was determined using the Agilent 85070 Dielectric Probe. All measurements were made at ambient pressure and room temperature (approximately 23° C.). Prior to making measurements, the system was calibrated from 1 GHz to 20 GHz with an open circuit, a short circuit, and DI water (@22.4° C.) standard. The result of the calibration is shown in the Table E1 below for DI H2O, and is consistent with DI water at 22.4° C. The accuracy of the probe is given as: Dielectric constant, er′=er′+/−0.05|er*| with er″=er″+/−0.05|er*| and (loss=er″/er′).

Data set [2] can be described thus: Boiling point determination. It counts as physicochemical. The following applies: for boiling point: Table 1, values understood as 'about'; for BP: Table E1. The protocol:
as §1

For data set [3] the following is noted: background, commercial 3M fluids; cited from earlier work.
For data set [4] the following is noted: background, commercial 3M fluids; cited from earlier work. The source holds these as a separate data set.

With `F/C=C\C(F)(C(F)(F)F)C(F)(F)F` [HFO-1438ezy(Z), (Z)-1,3,4,4,4-pentafluoro-(3-trifluoromethyl)-but-1-ene], in data set [1], the “Dielectric Constant (20 GHz)” value is 7.8. In data set [2], this compound returned a boiling point of 55 °C and a BP of 55 °C.

In the case of `COC(F)(F)C(F)(F)C(F)(F)F` [HFE7000, 1-methoxyheptafluoropropane (C3F7OCH3)], in data set [3], the boiling point is 34 °C. Also, in data set [4], the dielectric constant is 7.4.

Consider `FC(F)(F)N1C(F)(F)C(F)(F)OC(F)(F)C1(F)F` [FC-3284], for which the boiling point in data set [3] was 50 °C.

For `F/C=C/C(F)(C(F)(F)F)C(F)(F)F` [HFO-1438ezy(E), (E)-1,3,4,4,4-pentafluoro-(3-trifluoromethyl)-but-1-ene], in data set [1], the “Dielectric Constant (20 GHz)” value is given as 2.43 and the “Dissipation Factor (20 GHz)” value came out at 0.09. In data set [2], the boiling point came out at 28 °C and the BP is 30 °C.
